Measured values published in patent US8901301B2, “Pyrrolo[2,3-]pyridine kinase inhibitors” (Plexxikon Inc., priority 2009, dated 2014).

Key:
Hgk = Hgk (Homo sapiens, UniProt O95819); experiment: Biochemical inhibitory activity, other protein kinases: Hgk; details: for Kinase having IC50 of >1 μM: listing of the kinase means IC50 >1 μM; for Kinase having IC50 of <1 μM: listing of the kinase means IC50 <1 μM
CYP1A2 = target: T1, CYP1A2 (Homo sapiens, UniProt P05177); experiment: CYP inhibition (fluorescent substrate), CYP1A2; type: in vitro ADME; details: substrate CEC; read-out: Cyp IC50 (μM) 1A2
T1 construct: purchased BD Biosciences
T1 sequence (P05177 1-516): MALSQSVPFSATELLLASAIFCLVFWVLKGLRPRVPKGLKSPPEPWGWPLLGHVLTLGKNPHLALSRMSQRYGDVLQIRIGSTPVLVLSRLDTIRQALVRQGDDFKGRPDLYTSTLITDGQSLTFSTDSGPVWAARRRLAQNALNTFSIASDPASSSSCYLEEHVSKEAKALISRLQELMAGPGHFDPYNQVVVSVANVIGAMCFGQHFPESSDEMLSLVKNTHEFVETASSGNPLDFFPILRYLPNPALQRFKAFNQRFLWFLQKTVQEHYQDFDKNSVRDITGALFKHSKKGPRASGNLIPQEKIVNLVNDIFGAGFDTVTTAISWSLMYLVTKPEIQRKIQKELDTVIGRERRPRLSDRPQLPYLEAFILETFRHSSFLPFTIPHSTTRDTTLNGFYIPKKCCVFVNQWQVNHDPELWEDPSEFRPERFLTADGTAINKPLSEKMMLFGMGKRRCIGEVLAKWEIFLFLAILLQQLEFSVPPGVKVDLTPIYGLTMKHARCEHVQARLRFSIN
Protocol: (§1) CYP (Cytochrome P450) enzymes are the major drug metabolizing enzymes present in the liver. The inhibition of CYP enzyme activity (IC50) for each of CYP1A2, CYP2C19, CYP2C9, CYP2D6, CYP3A4(BFC) and CYP3A4(BQ) is determined for compounds, where inhibition of metabolism of a known substrate leads to a decrease in the fluorescence of the metabolized product. The fluorescence of the product is monitored as a function of compound concentration. Compounds are dissolved in dimethyl sulfoxide to a concentration of 100 mM. These are diluted 1 μL into 82 μL of acetonitrile. An 11 μL aliquot of this solution is then added to 204 μL of cofactor mix (1.3% NADPH Regeneration system Solution A, 1.04% NADPH Regeneration system Solution B from BD Biosciences, 5% acetonitrile and 0.05% dimethyl sulfoxide). These are then serially diluted 1:1 (160 μL to 160 μL co-factor mix) for a total of 10 points. A 10 μL aliquot of this final mixture is dispensed into 384 well assay plates and incubated for 10 minutes at 37° C. […] Assay plates are incubated at 37° C. (CYP1A2-15 min; CYP2C9-45 min; CYP2C19, 2D6 and 3A4-30 min) and read in a Tecan Safire 2 plate reader (CYP1A2, 2C19 and 3A4 409 ex/460 em; CYP2C9 and 2D6 409 ex/530 em). The signal versus compound concentration is used to determine the IC50. The enzymes and substrates for this assay are obtained from BD Biosciences.

Fms = Fms (Homo sapiens, UniProt P07333); experiment: Biochemical inhibitory activity, other protein kinases: Fms; details: listing of the kinase means IC50 >1 μM
Chain of Fms (P07333 20-972, species assumed): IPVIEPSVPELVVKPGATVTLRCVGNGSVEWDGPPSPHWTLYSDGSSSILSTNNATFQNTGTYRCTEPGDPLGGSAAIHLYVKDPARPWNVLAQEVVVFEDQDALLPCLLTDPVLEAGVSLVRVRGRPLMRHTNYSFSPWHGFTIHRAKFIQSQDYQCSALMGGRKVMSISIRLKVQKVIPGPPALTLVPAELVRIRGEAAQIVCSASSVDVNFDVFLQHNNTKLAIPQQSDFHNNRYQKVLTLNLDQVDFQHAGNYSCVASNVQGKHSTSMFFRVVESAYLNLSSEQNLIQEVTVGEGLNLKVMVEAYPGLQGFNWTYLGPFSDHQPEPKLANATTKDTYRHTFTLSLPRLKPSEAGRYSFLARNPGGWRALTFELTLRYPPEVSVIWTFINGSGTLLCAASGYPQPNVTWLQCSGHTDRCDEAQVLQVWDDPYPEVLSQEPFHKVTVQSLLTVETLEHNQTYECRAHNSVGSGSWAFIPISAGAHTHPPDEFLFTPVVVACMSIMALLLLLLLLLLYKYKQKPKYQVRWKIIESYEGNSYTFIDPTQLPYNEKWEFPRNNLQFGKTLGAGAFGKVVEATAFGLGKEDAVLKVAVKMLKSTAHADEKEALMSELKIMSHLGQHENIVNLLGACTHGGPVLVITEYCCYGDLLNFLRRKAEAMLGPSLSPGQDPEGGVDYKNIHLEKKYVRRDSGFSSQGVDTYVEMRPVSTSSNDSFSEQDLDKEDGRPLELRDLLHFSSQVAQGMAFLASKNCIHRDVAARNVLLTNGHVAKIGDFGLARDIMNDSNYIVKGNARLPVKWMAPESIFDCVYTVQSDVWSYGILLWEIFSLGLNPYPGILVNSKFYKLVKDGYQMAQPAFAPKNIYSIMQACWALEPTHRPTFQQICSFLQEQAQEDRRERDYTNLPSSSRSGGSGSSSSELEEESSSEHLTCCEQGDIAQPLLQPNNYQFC

Kdr = Kdr (Homo sapiens, UniProt P35968); experiment: Biochemical inhibitory activity, other protein kinases: Kdr; details: for Kinase having IC50 of >1 μM: listing of the kinase means IC50 >1 μM
Chain of Kdr (P35968 20-1356, species assumed): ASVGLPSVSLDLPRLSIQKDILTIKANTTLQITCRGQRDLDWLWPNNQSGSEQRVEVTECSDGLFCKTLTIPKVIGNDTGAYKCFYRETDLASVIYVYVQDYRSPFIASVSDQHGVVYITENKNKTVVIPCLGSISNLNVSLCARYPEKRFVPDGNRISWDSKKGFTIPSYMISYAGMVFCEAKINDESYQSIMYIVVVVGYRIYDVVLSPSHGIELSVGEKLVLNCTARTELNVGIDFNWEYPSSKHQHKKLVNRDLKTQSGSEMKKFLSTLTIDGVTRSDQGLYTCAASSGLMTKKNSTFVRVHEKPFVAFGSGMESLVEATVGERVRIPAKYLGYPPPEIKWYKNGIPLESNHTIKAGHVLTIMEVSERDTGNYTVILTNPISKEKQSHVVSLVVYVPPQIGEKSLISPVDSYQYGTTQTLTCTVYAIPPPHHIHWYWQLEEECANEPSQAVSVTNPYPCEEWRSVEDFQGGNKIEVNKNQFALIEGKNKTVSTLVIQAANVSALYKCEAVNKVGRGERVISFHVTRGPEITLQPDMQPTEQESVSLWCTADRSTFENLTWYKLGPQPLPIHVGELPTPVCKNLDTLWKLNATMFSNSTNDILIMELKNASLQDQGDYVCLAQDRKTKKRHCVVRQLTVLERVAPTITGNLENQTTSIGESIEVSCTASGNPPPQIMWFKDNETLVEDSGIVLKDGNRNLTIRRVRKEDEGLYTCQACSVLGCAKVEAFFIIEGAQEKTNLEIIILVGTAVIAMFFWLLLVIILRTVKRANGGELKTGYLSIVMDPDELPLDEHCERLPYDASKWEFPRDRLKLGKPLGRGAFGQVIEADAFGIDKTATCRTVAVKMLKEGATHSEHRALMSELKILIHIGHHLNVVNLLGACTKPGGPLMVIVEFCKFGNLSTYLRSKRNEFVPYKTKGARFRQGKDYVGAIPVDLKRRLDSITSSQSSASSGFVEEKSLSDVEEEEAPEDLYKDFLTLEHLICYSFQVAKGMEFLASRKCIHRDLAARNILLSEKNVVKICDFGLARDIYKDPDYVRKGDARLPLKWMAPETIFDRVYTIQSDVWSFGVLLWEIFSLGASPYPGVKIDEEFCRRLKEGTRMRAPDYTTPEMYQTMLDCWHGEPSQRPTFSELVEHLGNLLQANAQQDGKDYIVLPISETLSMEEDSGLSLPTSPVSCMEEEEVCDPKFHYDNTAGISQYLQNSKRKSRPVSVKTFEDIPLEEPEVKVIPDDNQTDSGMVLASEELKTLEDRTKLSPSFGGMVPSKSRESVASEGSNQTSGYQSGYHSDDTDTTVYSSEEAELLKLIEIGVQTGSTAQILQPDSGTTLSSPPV

[1] = Relative solubility by turbidity in aqueous buffers; type: physicochemical; details: for turbidity threshold (L, M, H) 4.5: pH 4.5 (Simulated Intestinal fluid); for turbidity threshold (L, M, H) 6.8: pH 6.8 (Simulated Intestinal fluid); for turbidity threshold (L, M, H) 7.4: pH 7.4 (Hepes Buffer)
Protocol: As an indication of relative solubility, the turbidity of compounds in aqueous solutions is assessed. To assess possible compound properties in different physiological compartments, such as stomach, intestine, and blood, a series of aqueous buffers with varying pH is used. Thus each compound is diluted into four different physiologically relevant buffers and solution turbidity is measured by spectrophotometry.
Compounds are dissolved at a concentration of 25 mM in dimethyl sulfoxide, then serially diluted 1:1 into a 96 well plate, diluting 10 times in pure dimethyl sulfoxide, with the final well of each row a dimethyl sulfoxide blank. In an assay plate, 99 μL of appropriate buffer is added to each well, and 1 μL of each sample dilution is added to the buffer, achieving a range of final total concentrations in aqueous solutions having different pH. The buffers used are Simulated Gastric Fluid (SGF-pH 1.5) 0.5M NaCl, pH 1.5; Simulated Intestinal fluid (SIF-pH 4.5 and pH 6.8) 0.05M NaH2PO4, pH 4.5 and 6.8; and Hepes Buffer (HEPES-pH 7.4) 10 mM HEPES, 150 mM NaCl, pH 7.4. Control compounds pyrene, estriol and propranolol HCl are also assessed. Plates are spun and then mixed for 1 minute, and the absorbance is read using a Tecan Safire II to read wavelengths in the visible range (490, 535, and 650 nm) at four locations per well, reflecting the degree of turbidity present. The average optical density for each wavelength in each well is graphed vs. compound concentration, and the concentration at which the curve crosses a threshold O.D. of 0.01 for each wavelength is reported as the endpoint turbidity assay result. The average of the three wavelengths is used to compare turbidity of compounds. Compounds are considered to have low solubility if the threshold concentration is <31.3 μM, moderate solubility if the threshold concentration is 31.3 μM to 250 μM, and high solubility if the threshold concentration is >250 μM.

CYP2C9 = target: T2, CYP2C9 (Homo sapiens, UniProt P11712); experiment: CYP inhibition (fluorescent substrate), CYP2C9; type: in vitro ADME; details: substrate MFC; read-out: Cyp IC50 (μM) 2C9
T2 construct: purchased BD Biosciences
T2 sequence (P11712 whole entry): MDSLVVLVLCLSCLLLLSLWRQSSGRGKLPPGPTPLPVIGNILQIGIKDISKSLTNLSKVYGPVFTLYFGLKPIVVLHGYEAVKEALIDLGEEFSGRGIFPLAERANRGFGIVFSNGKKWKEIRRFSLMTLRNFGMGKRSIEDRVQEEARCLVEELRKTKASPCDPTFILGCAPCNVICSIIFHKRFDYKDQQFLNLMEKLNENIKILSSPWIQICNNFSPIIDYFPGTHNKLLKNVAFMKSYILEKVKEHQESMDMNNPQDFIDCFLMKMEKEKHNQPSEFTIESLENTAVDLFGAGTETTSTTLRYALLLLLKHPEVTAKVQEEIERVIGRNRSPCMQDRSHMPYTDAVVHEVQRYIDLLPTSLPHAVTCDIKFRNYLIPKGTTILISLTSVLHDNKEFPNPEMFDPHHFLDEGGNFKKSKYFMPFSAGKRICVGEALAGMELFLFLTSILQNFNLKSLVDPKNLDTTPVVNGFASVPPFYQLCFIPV
Protocol: as §1

Src = Src (Homo sapiens, UniProt P12931); experiment: Biochemical inhibitory activity, other protein kinases: Src; details: for Kinase having IC50 of >1 μM: listing of the kinase means IC50 >1 μM; for Kinase having IC50 of <1 μM: listing of the kinase means IC50 <1 μM
Chain of Src (P12931 whole entry, species assumed): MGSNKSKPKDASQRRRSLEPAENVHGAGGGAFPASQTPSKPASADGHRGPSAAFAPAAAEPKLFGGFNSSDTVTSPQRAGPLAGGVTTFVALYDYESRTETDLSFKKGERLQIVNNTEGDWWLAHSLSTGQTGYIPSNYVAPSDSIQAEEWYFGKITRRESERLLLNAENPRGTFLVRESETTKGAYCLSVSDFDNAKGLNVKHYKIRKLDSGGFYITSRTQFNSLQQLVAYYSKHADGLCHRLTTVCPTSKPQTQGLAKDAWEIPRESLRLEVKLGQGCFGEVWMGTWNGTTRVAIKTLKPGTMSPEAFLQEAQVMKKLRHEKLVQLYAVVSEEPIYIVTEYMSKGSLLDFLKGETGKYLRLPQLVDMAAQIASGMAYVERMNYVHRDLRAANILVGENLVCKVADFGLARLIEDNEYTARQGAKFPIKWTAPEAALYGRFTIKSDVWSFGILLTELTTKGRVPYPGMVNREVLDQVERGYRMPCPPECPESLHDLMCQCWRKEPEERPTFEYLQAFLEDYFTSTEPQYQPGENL

Chain of Hgk (O95819 whole entry, species assumed): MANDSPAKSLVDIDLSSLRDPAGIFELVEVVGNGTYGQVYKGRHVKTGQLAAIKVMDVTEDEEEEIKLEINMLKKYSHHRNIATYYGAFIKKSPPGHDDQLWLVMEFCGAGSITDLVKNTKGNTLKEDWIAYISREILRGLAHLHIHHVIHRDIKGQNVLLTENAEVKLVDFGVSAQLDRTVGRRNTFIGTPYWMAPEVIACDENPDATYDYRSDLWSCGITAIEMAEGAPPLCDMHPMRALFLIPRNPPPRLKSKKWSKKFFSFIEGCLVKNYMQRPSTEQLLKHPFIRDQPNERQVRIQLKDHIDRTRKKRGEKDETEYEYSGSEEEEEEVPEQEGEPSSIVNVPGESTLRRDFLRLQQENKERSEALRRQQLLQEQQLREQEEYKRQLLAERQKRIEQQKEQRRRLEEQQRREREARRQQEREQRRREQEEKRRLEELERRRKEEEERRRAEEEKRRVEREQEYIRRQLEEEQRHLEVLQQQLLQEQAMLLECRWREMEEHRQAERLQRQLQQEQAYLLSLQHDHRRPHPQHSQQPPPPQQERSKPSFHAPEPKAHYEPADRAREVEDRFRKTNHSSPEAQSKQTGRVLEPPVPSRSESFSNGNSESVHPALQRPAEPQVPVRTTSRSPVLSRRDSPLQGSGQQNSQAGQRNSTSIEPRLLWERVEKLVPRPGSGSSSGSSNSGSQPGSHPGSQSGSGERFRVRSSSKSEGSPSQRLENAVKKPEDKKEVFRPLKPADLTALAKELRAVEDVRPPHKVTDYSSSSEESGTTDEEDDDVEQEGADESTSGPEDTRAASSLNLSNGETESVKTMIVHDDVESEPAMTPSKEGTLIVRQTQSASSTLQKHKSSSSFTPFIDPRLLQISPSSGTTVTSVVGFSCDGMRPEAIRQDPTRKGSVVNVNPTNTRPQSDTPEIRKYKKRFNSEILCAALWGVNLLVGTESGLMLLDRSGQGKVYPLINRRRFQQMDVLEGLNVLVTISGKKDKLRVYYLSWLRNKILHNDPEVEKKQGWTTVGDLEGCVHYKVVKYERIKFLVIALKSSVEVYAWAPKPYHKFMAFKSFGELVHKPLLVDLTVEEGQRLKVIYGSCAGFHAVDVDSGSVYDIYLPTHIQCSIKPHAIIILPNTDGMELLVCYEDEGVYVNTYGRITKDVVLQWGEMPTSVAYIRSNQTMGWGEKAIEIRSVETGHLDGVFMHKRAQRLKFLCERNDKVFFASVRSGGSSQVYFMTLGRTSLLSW

Structure (SMILES) | Kinase having IC50 of >1 μM (Hgk) | IC50 (CYP1A2) | Kinase having IC50 of >1 μM (Fms) | Kinase having IC50 of >1 μM (Kdr) | turbidity threshold (L, M, H) 4.5 [1] | turbidity threshold (L, M, H) 6.8 [1] | turbidity threshold (L, M, H) 7.4 [1] | IC50 (CYP2C9) | Kinase having IC50 of >1 μM (Src) | Kinase having IC50 of <1 μM (Hgk) | Kinase having IC50 of <1 μM (Kdr; listing of the kinase means IC50 <1 μM) | Kinase having IC50 of <1 μM (Src)
CCCS(=O)(=O)Nc1ccc(F)c(C(=O)c2c[nH]c3ncc(-c4cnc(OC)nc4)cc23)c1F [Compound P-0001, propane-1-sulfonic acid {2,4-difluoro-3-[5-(2-methoxy-pyrimidin-5-yl)-1H-pyrrolo[2,3-b]pyridine-3-carbonyl]-phenyl}-amide] | Hgk | > 10 µM | Fms | Kdr | M (moderate solubility if the threshold concentration is 31.3 μM to 250 μM) | M (moderate solubility if the threshold concentration is 31.3 μM to 250 μM) | M (moderate solubility if the threshold concentration is 31.3 μM to 250 μM) | 5 to 10 µM | Src | – | – | –
CCCS(=O)(=O)Nc1ccc(F)c(C(=O)c2c[nH]c3ncc(C#N)cc23)c1F [Compound P-0002, propane-1-sulfonic acid [3-(5-cyano-1H-pyrrolo[2,3-b]pyridine-3-carbonyl)-2,4-difluoro-phenyl]-amide] | Hgk | > 10 µM | Fms | Kdr | M (moderate solubility if the threshold concentration is 31.3 μM to 250 μM) | M (moderate solubility if the threshold concentration is 31.3 μM to 250 μM) | M (moderate solubility if the threshold concentration is 31.3 μM to 250 μM) | 5 to 10 µM | Src | – | – | –
CCCS(=O)(=O)Nc1cccc(C(=O)c2c[nH]c3ncc(C#N)cc23)c1F [Compound P-0003, propane-1-sulfonic acid [3-(5-cyano-1H-pyrrolo[2,3-b]pyridine-3-carbonyl)-2-fluoro-phenyl]-amide] | Hgk | > 10 µM | Fms | Kdr | M (moderate solubility if the threshold concentration is 31.3 μM to 250 μM) | M (moderate solubility if the threshold concentration is 31.3 μM to 250 μM) | M (moderate solubility if the threshold concentration is 31.3 μM to 250 μM) | > 10 µM | Src | – | – | –
N#Cc1cnc2[nH]cc(C(=O)c3c(F)ccc(NS(=O)(=O)c4cc(F)ccc4F)c3F)c2c1 [Compound P-0004, N-[3-(5-cyano-1H-pyrrolo[2,3-b]pyridine-3-carbonyl)-2,4-difluoro-phenyl]-2,5-difluoro-benzenesulfonamide] | – | > 10 µM | Fms | – | M (moderate solubility if the threshold concentration is 31.3 μM to 250 μM) | M (moderate solubility if the threshold concentration is 31.3 μM to 250 μM) | M (moderate solubility if the threshold concentration is 31.3 μM to 250 μM) | > 10 µM | – | Hgk | Kdr | Src
N#Cc1cnc2[nH]cc(C(=O)c3c(F)ccc(NS(=O)(=O)c4cccc(F)c4)c3F)c2c1 [Compound P-0005, N-[3-(5-cyano-1H-pyrrolo[2,3-b]pyridine-3-carbonyl)-2,4-difluoro-phenyl]-3-fluoro-benzenesulfonamide] | – | > 10 µM | Fms | Kdr | M (moderate solubility if the threshold concentration is 31.3 μM to 250 μM) | M (moderate solubility if the threshold concentration is 31.3 μM to 250 μM) | M (moderate solubility if the threshold concentration is 31.3 μM to 250 μM) | 5 to 10 µM | – | Hgk | – | Src
N#Cc1cnc2[nH]cc(C(=O)c3c(F)ccc(NS(=O)(=O)N4CCCC4)c3F)c2c1 [Compound P-0006, pyrrolidine-1-sulfonic acid [3-(5-cyano-1H-pyrrolo[2,3-b]pyridine-3-carbonyl)-2,4-difluoro-phenyl]-amide] | Hgk | > 10 µM | Fms | Kdr | M (moderate solubility if the threshold concentration is 31.3 μM to 250 μM) | M (moderate solubility if the threshold concentration is 31.3 μM to 250 μM) | M (moderate solubility if the threshold concentration is 31.3 μM to 250 μM) | > 10 µM | Src | – | – | –
CN(C)S(=O)(=O)Nc1ccc(F)c(C(=O)c2c[nH]c3ncc(C#N)cc23)c1F [Compound P-0007, N,N-dimethylamino-sulfonic acid [3-(5-cyano-1H-pyrrolo[2,3-b]pyridine-3-carbonyl)-2,4-difluoro-phenyl]-amide] | Hgk | > 10 µM | Fms | Kdr | M (moderate solubility if the threshold concentration is 31.3 μM to 250 μM) | H (high solubility if the threshold concentration is >250 μM) | H (high solubility if the threshold concentration is >250 μM) | > 10 µM | Src | – | – | –
